# Publication PMC7766155, “Improved Stability and Activity of a Marine Peptide-N6NH2 against Edwardsiella tarda and Its Preliminary Application in Fish” (Marine Drugs, 2020)
# “And” between values parts separate entries of the source, which are not always exact repeats. Identical values can stand only once. Like-named read-outs stand apart in the source and are kept apart here. Where a SMILES comes first, the peptide text is derived from it. Bridges are numbered along the chain shown (N, C = ends).
# How the values were obtained:
# [1] = tested on: RAW 264.7 macrophages; assay type: cell-based, mouse; conditions: 48 h
# Method: The colorimetric MTT assay was used to determine the effect of peptides on the viability of murine peritoneal RAW 264.7 macrophage cells. Macrophage cells were added into 96-well plates (5 × 10^3 cells/well) and incubated for 24 h at 37 °C (5% (v/v) CO2/air). A series of peptide solutions were added into the cells and incubated for 48 h. The untreated cells were used as the control (Acontrol). The MTT solution was added into plates, incubated for 4 h, and then removed from plates. Dimethyl sulfoxide (DMSO) was then added into plates and the absorbance was measured at 570 nm in a spectrophotometer. The cell viability was calculated using the following formula: Survival rate (%) = […] × 100.
# [2] = LPS binding, BODIPY-TR-cadaverine displacement; design: species or system E. coli; conditions: 0.5 µM LPS, 5 μM BC, Tris buffer pH 7.4; 0.049 μM to 50 μM; excitation/emission 580/620 nm
# [3] = tested on: E. tarda; experiment: Kirby-Bauer disk diffusion susceptibility; assay type: cell-based, Edwardsiella tarda; conditions: disc diffusion, MHA, 37 °C 18 h, CLSI standard; 27 antibiotics; Supplementary Table S2
# Method: The susceptibility of E. tarda to antibiotics was determined by the Kirby-Bauer disk diffusion method according to Clinical Laboratory Standards Institute (CLSI). E. tarda was cultured in TSB medium (10 mL) at 28 °C overnight. The MHA petri dish plates were seeded with a 250 μL bacterial solution (OD600nm = 1.0). […] The diameter of the bacterial inhibition zone was measured, and the results were determined according to the standard of CLSI.
# [4] = tested on: E. coli CVCCO157; conditions: broth microdilution, MHB, 1 × 10^5 CFU/mL, 37 °C 18–24 h, n = 3; some N6 data from ref 19
# [5] = tested on: Gram-negative bacteria (except Pseudomonas aeruginosa CICC21630); experiment: MIC, range over strains; assay type: cell-based; conditions: range over Gram-negative strains of Table 2
# Method: (§1) All tests were conducted in triplicate.
# [6] = tested on: Staphylococcus aureus ATCC43300; conditions: ATCC43300
# [7] = tested on: S. pullorum CVCC1789; conditions: CVCC1789
# [8] = tested on: S. hyicus 437-2
# [9] = tested on: S. hyicus 15095
# [10] = tested on: S. aureus ATCC546; conditions: ATCC546
# [11] = tested on: E. coli CVCC1515; conditions: CVCC1515
# [12] = tested on: Pseudomonas aeruginosa CICC21630; conditions: CICC21630
# [13] = tested on: S. aureus ATCC25923; conditions: ATCC25923
# [14] = tested on: E. tarda and A. veronii; assay type: cell-based
# Method: as §1
# [15] = tested on: Staphylococcus hyicus; experiment: microbe, parasite or virus in culture; assay type: cell-based
# Method: as §1
# [16] = tested on: S. enteritidis CVCC3377; conditions: CVCC3377
# [17] = tested on: E. tarda; assay type: cell-based, Edwardsiella tarda
# Method: as §1
# [18] = tested on: E. tarda; experiment: pH stability (residual antibacterial activity, inhibition zone); assay type: physicochemical, Edwardsiella tarda; conditions: pH values of 2–10, 3 h incubation; N6 128 μg/mL, norfloxacin 10 μg/mL; inhibition zone method vs E. tarda
# Method: (§2) To evaluate the thermal stability of peptides, N6 and N6NH2 were incubated for 1 h at 4, 20, 40, 60, 80 and 100 °C. To measure the pH stability, peptides were incubated for 3 h in 100 mM glycine-HCl buffer (pH 2.0), sodium acetate buffer (pH 4.0), sodium phosphate buffer (pH 6.0), Tris-HCl buffer (pH 8.0) or glycine-NaOH buffer (pH 10.0). In addition, peptides were incubated for 4 h at 37 °C in pepsin (3,000 U/mg, pH 2.0) and trypsin (250 U/mg, pH 8.0) (10:1, w/w) solutions, respectively. […] After treatment, 30 μL of solutions were taken out to determine the antibacterial activity of peptides against E. tarda by the inhibition zone method. The untreated peptides were used as the control. All tests were conducted in triplicate.
# [19] = tested on: Edwardsiella tarda; experiment: MIC, broth microdilution
# [20] = tested on: E. tarda; experiment: Thermal stability (residual antibacterial activity, inhibition zone); assay type: physicochemical, Edwardsiella tarda; conditions: incubated 1 h at 20, 40, 60, 80 or 100 °C; N6NH2 64 μg/mL, norfloxacin 10 μg/mL; inhibition zone method; triplicate
# Method: as §2
# [21] = tested on: E. tarda; experiment: Fish peritonitis model, histopathology; assay type: in vivo, O. niloticus; conditions: N6NH2 (10 mg/kg) or norfloxacin 1.29 mg/kg; hematoxylin and eosin, light microscope; 3 fish/group
# Method: The spleen, kidney, liver, intestine and brain samples (3 fish/group) were used for tissue section observation. After 24 h of fixation, all samples were dehydrated with 75–95% ethanol, embedded in paraffin and cut to 6 μm thin sections. Sections were stained with hematoxylin and eosin and observed by a light microscope.
# [22] = tested on: inner membrane of E. tarda; experiment: Inner membrane penetration, PI staining, flow cytometry; assay type: cell-based, Edwardsiella tarda; conditions: norfloxacin-treated control, all time points of Figure 3B
# Method: After washing twice with PBS, the cells were incubated with PI (50 μg/mL) for 15 min and analyzed using a FACS Calibur Flow Cytometer (BD, San Jose, CA, USA).
# [23] = tested on: E. tarda; experiment: Fish peritonitis model, bacterial translocation (organ load); assay type: in vivo, O. niloticus; conditions: 1.29 mg/kg norfloxacin i.p. once; 24 h after treatment
# Method: Sixty fish were randomly divided into 6 groups (10 fish/group). […] The remaining untreated group served as negative control. The fish injected with saline were used as the blank control. The challenge and treatment were performed as described above. […] Other fish were used to analyze the effects on tissues and immune genes.
# [24] = tested on: Escherichia coli, S. typhimurium, S. enteritidis and S. pullorum; experiment: organism not typed; assay type: cell-based; conditions: range over other Gram-negative strains of Table 2; read-out: MIC
# Method: as §1
# [25] = tested on: E. tarda cells; experiment: TEM ultrastructure; assay type: cell-based, Edwardsiella tarda; conditions: 4 × MIC for 2 h, 1 × 10^8 CFU/mL
# Method: Mid-log phase E. tarda cells (1 × 10^8 CFU/mL) were incubated with 4 × MIC N6 or N6NH2 for 2 h at 37 °C. The bacterial cells were then centrifuged, washed three times with 0.1 M PBS (pH 7.2) and fixed overnight at 4 °C with 2.5% glutaraldehyde. After washing twice with PBS, the cells were post-fixed with 1% osmium tetroxide (OsO4) for 2 h, dehydrated in a graded ethanol series (from 50% to 100%) for 15 min each time and dried by CO2. The cell samples were sputtered with gold-palladium and observed on a QUANTA200 electron microscopy (FEI, Philips, The Netherlands).
# The bacterial cells were treated with peptides as described above, fixed with 2.5% glutaraldehyde at 4 °C overnight and post-fixed with 1% OsO4 for 1 h. After washing three times with PBS, the cells were dehydrated with a graded acetone series (50%, 70%, 85%, 95% and 100%, for 7 min each time) and immersed in mixtures of acetone and resin (3:1, 1:1 and 1:3, 40 min each time). The samples were infiltrated with a pure epoxy resin overnight, embedded in capsules containing embedding medium and polymerized at 45 °C for 3 h and at 65 °C for 24 h, respectively. Thin sections were cut using an ultramicrotome, stained with 1% uranyl acetate and examined by a JEM1400 (JEDL, Tokyo, Japan).
# [26] = tested on: E. tarda; experiment: Fish peritonitis model, survival; assay type: in vivo, O. niloticus; conditions: 1.29 mg/kg norfloxacin i.p. once
# Method: The fish (O. niloticus, Gift strain, 20 g mean weight) were purchased from Beijing Fisheries Technology Extension Center, Hainan Station, China and were acclimated at 25 ± 1 °C. The fish were fed twice daily with commercial pellets for two weeks before experiments.
# O. niloticus (6 fish/group) were intraperitoneally injected with LC100 of E. tarda, followed 30 min later by 200 µL N6NH2 (2.5, 5, and 10 mg/kg, respectively). Norfloxacin was used as a positive control. Fish injected with only bacteria or saline served as negative (untreated) or blank (unchallenged) controls, respectively. […] The fish survival rate was recorded daily for 5 d. Two independent experiments were conducted, including pre-experiment and formal experiment.
compound,measurement,setting,value
CC(C)[C@@H]1NC(=O)CNC(=O)[C@H](CC(N)=O)NC(=O)[C@H](CCCNC(=N)N)NC(=O)[C@H](Cc2ccc(O)cc2)NC(=O)[C@H](C(C)C)NC(=O)[C@@H](NC(=O)[C@@H](NC(=O)[C@H](CC(N)=O)NC(=O)[C@H](Cc2c[nH]c3ccccc23)NC(=O)[C@H](C)NC(=O)[C@H](Cc2ccccc2)NC(=O)CN)C(C)C)CSSC[C@@H](C(=O)N[C@@H](Cc2cnc[nH]2)C(=O)N[C@@H](CCCNC(=N)N)C(=O)N[C@@H](CCCNC(=N)N)C(=O)N[C@@H](C)C(=O)N[C@@H](CC(N)=O)C(=O)O)NC(=O)[C@H](C(C)C)NC(=O)[C@H](CCCNC(=N)N)NC1=O [Peptide N6] (H-GFAWNVCVYRNGVRVCHRRAN-OH; disulfide 7-16),cell survival rate,[1],> 93.35%
"CC1(C)S[C@@H]2[C@H](NC(=O)[C@H](N)c3ccccc3)C(=O)N2[C@H]1C(=O)O [ampicillin, reference compound]",binding to LPS (displacement of BC probe),[2],neither ampicillin nor norfloxacin replaced the BC probe or bound to LPS
CC(C)[C@@H]1NC(=O)CNC(=O)[C@H](CC(N)=O)NC(=O)[C@H](CCCNC(=N)N)NC(=O)[C@H](Cc2ccc(O)cc2)NC(=O)[C@H](C(C)C)NC(=O)[C@@H](NC(=O)[C@@H](NC(=O)[C@H](CC(N)=O)NC(=O)[C@H](Cc2c[nH]c3ccccc23)NC(=O)[C@H](C)NC(=O)[C@H](Cc2ccccc2)NC(=O)CN)C(C)C)CSSC[C@@H](C(=O)N[C@@H](Cc2cnc[nH]2)C(=O)N[C@@H](CCCNC(=N)N)C(=O)N[C@@H](CCCNC(=N)N)C(=O)N[C@@H](C)C(=O)N[C@@H](CC(N)=O)C(N)=O)NC(=O)[C@H](C(C)C)NC(=O)[C@H](CCCNC(=N)N)NC1=O [Peptide N6NH2] (H-GFAWNVCVYRNGVRVCHRRAN-NH2; disulfide 7-16),cell survival rate,[1],> 93.35%
CC1(C)S[C@@H]2[C@H](NC(=O)[C@H](N)c3ccc(O)cc3)C(=O)N2[C@H]1C(=O)O [amoxicillin],susceptibility of E. tarda to antibiotics,[3],resistance
CC(C)[C@@H]1NC(=O)CNC(=O)[C@H](CC(N)=O)NC(=O)[C@H](CCCNC(=N)N)NC(=O)[C@H](Cc2ccc(O)cc2)NC(=O)[C@H](C(C)C)NC(=O)[C@@H](NC(=O)[C@@H](NC(=O)[C@H](CC(N)=O)NC(=O)[C@H](Cc2c[nH]c3ccccc23)NC(=O)[C@H](C)NC(=O)[C@H](Cc2ccccc2)NC(=O)CN)C(C)C)CSSC[C@@H](C(=O)N[C@@H](Cc2c[nH]cn2)C(=O)N[C@@H](CCCNC(=N)N)C(=O)N[C@@H](CCCNC(=N)N)C(=O)N[C@@H](C)C(=O)N[C@@H](CC(N)=O)C(N)=O)NC(=O)[C@H](C(C)C)NC(=O)[C@H](CCCNC(=N)N)NC1=O [Peptide N6NH2] (H-GFAWNVCVYRNGVRVCHRRAN-NH2; disulfide 7-16),MIC,[4],0.646 µM
same,MIC,[5],0.8 to 3.2 µg/mL
same,MIC,[6],2.58 µM
same,MIC,[7],1.29 µM
same,MIC,[8],5.17 µM
same,MIC,[9],1.29 µM
same,MIC,[10],2.58 µM
same,MIC,[11],0.323 µM
same,MIC,[12],10.34 µM
same,MIC,[13],5.17 µM
same,MIC,[14],0.65 to 1.29 µM
same,MIC,[15],3.2 to 12.8 µg/mL
same,MIC,[16],0.323 µM
same,MBC,[17],6.4 µg/mL
O=C1OCCN1/N=C/c1ccc([N+](=O)[O-])o1 [furazolidone],susceptibility of E. tarda to antibiotics,[3],resistance
bacitracin,susceptibility of E. tarda to antibiotics,[3],resistance
CCn1cc(C(=O)O)c(=O)c2cc(F)c(N3CCNCC3)cc21 [Norfloxacin],antibacterial activity at different pH values,[18],strong antibacterial activity
same,MIC,[19],0.5 µg/mL and 1.57 µM
same,antimicrobial activity against E. tarda after exposure to temperature,[20],did not change
same,"histological findings in liver, kidney and intestine",[21],obvious pathological changes were found in organs
same,percentage of E. tarda stained with PI,[22],less than 1%
same,"number of bacteria in organs (blood, spleen, kidney, liver)",[23],did not decrease in any organs except the liver
same,MIC,[24],0.06 to 1 µg/mL
same,abnormal cells (TEM),[25],not significantly affected
same,MIC,"[15]; Staphylococcus hyicus, range over S. hyicus strains of Table 2, read-out: MIC",4 to 16 µg/mL
same,survival rate of fish,"[26]; 0.5 h after E. tarda 1.0 × 10^9 CFU/mL i.p., within 2 d, 6 fish/group",16.7%
same,survival rate of fish,[26]; time not stated in the sentence (survival recorded for 5 d),16.7%
